According to ChEMBL document CHEMBL1629455, “Discovery of a novel class of biphenyl pyrazole sodium channel blockers for treatment of neuropathic pain” (Bioorg Med Chem Lett, 2010):
pIC50: −log10 of the molar value.

What was measured:
Canis familiaris [1] = assay: Cardiotoxicity in anesthetized dog assessed as effect on QRS interval at 10 mg/kg, iv; type: toxicity, organism-based, Canis lupus familiaris; set-up: dose 10 mg/kg, route intravenous; settings: in vivo
Canis familiaris [2] = assay: Cardiotoxicity in anesthetized dog assessed as effect on QRS interval at 3 mg/kg, iv; type: toxicity, organism-based, Canis lupus familiaris; set-up: dose 3 mg/kg, route intravenous; settings: in vivo
Mus musculus [3] = assay: Neurotoxicity in conscious mouse assessed as effect on body temperature at 100 mg/kg after 2 hrs; type: toxicity, organism-based; set-up: dose 100 mg/kg; settings: in vivo
[4] = Half life in rat at 1 mg/kg, iv and 3 mg/kg, po; type: ADME, organism-based; settings: in vivo
[5] = biological target: Sodium channel protein type 9 subunit alpha (Homo sapiens, UniProt Q15858); assay: Inhibition of human Nav1.7 by VIPR assay
Mus musculus [6] = assay: Neurotoxicity in conscious mouse assessed as effect on behavior at 100 mg/kg after 2 hrs; type: toxicity, organism-based; set-up: dose 100 mg/kg; settings: in vivo
Plasma = assay: Plasma concentration in dog at 10 mg/kg, iv; type: ADME, organism-based, Canis lupus familiaris; set-up: dose 10 mg/kg, route intravenous; settings: in vivo
Rattus norvegicus [7] = assay: Antiallodynic activity in rat spinal nerve ligation model of neuropathic pain assessed as reversal of allodynia at 30 mg/kg, po after 2 hrs; type: functional
Mus musculus [8] = assay: Neurotoxicity in conscious mouse assessed as effect on motor activity at 100 mg/kg after 24 hrs; type: toxicity, organism-based; set-up: dose 100 mg/kg; settings: in vivo
[9] = Half life in dog at 0.5 mg/kg, iv and 2 mg/kg, po; type: ADME, organism-based, Canis lupus familiaris; settings: in vivo
Rattus norvegicus [10] = assay: Antiallodynic activity in rat spinal nerve ligation model of neuropathic pain assessed as reversal of allodynia at 10 mg/kg, po after 4 hrs; type: functional; settings: Rattus norvegicus, Spinal nerve, 4 h
Rattus norvegicus [11] = assay: Antiallodynic activity in rat […] model assessed as reversal of complete Freund's adjuvant-induced allodynia at 30 mg/kg, po after 2 hrs; type: functional
[12] = Cmax in rat at 1 mg/kg, iv and 3 mg/kg, po; type: ADME, organism-based; settings: in vivo
[13] = biological target: Sodium channel protein type 10 subunit alpha (Homo sapiens, UniProt Q9Y5Y9); assay: Inhibition of human Nav1.8 by VIPR assay
[14] = Metabolic stability in human liver microsomes assessed as compound remaining after 60 mins in presence of 10 uM substrate; type: ADME, Microsome; settings: read-out: Stability
Mus musculus [15] = assay: Neurotoxicity in conscious mouse assessed as effect on motor activity at 100 mg/kg after 2 hrs; type: toxicity, organism-based; set-up: dose 100 mg/kg; settings: in vivo
Rattus norvegicus [16] = assay: Neurotoxicity in rat assessed as delay in motor coordination at 100 mg/kg, po by rotarod test (reference value: 18%); type: toxicity, organism-based; set-up: dose 100 mg/kg, route oral; settings: in vivo

Sodium channel protein type 10 subunit alpha, sequence (Q9Y5Y9 whole entry): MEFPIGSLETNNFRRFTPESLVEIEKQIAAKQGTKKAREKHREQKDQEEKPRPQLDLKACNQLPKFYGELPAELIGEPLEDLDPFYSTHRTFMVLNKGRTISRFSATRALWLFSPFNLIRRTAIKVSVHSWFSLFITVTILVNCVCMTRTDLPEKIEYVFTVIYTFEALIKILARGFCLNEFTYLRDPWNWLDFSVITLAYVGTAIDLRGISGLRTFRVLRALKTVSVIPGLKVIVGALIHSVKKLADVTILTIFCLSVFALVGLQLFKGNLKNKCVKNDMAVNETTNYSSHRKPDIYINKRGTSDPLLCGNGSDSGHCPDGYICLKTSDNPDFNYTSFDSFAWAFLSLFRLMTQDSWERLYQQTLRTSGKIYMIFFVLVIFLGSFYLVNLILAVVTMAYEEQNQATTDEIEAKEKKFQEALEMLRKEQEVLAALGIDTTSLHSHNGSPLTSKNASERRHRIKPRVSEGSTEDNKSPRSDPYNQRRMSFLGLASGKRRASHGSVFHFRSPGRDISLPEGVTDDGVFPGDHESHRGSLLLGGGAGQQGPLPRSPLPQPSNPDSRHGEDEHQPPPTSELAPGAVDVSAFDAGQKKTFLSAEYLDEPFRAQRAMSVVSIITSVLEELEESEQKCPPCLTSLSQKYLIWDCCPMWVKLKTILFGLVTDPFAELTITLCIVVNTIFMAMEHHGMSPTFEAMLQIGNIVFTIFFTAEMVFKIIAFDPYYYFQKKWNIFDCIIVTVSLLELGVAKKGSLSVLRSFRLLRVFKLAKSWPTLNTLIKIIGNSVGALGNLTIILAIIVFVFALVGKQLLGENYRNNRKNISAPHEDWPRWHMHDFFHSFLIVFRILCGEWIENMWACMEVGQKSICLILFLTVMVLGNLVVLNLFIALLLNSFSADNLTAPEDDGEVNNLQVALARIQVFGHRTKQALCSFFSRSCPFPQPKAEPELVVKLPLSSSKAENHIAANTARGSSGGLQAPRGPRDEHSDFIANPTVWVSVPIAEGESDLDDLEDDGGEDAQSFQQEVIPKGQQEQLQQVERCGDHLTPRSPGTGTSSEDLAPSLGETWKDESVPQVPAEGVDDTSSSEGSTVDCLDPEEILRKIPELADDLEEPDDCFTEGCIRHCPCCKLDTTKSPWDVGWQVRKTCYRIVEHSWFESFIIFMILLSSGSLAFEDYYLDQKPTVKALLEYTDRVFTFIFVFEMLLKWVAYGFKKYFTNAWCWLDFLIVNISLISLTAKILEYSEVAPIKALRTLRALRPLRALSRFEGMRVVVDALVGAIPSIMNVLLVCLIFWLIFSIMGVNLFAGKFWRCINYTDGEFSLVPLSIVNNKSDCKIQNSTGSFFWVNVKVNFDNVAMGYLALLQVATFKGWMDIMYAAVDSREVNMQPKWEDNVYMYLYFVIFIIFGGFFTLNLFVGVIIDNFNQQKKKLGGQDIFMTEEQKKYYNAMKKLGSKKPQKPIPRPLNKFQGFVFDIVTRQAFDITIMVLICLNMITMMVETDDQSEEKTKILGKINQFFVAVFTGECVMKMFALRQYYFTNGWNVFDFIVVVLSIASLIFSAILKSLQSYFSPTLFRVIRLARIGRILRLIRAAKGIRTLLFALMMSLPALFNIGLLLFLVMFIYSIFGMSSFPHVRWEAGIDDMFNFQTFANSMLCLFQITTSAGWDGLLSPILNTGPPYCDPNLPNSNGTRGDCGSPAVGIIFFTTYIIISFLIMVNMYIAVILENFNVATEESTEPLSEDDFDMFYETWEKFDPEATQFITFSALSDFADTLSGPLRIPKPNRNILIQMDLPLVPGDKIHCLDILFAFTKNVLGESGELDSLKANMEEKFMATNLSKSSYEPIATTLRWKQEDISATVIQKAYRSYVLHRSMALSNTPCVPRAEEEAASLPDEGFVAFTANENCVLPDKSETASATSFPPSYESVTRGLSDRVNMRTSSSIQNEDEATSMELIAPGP
Sodium channel protein type 9 subunit alpha, sequence (Q15858 whole entry): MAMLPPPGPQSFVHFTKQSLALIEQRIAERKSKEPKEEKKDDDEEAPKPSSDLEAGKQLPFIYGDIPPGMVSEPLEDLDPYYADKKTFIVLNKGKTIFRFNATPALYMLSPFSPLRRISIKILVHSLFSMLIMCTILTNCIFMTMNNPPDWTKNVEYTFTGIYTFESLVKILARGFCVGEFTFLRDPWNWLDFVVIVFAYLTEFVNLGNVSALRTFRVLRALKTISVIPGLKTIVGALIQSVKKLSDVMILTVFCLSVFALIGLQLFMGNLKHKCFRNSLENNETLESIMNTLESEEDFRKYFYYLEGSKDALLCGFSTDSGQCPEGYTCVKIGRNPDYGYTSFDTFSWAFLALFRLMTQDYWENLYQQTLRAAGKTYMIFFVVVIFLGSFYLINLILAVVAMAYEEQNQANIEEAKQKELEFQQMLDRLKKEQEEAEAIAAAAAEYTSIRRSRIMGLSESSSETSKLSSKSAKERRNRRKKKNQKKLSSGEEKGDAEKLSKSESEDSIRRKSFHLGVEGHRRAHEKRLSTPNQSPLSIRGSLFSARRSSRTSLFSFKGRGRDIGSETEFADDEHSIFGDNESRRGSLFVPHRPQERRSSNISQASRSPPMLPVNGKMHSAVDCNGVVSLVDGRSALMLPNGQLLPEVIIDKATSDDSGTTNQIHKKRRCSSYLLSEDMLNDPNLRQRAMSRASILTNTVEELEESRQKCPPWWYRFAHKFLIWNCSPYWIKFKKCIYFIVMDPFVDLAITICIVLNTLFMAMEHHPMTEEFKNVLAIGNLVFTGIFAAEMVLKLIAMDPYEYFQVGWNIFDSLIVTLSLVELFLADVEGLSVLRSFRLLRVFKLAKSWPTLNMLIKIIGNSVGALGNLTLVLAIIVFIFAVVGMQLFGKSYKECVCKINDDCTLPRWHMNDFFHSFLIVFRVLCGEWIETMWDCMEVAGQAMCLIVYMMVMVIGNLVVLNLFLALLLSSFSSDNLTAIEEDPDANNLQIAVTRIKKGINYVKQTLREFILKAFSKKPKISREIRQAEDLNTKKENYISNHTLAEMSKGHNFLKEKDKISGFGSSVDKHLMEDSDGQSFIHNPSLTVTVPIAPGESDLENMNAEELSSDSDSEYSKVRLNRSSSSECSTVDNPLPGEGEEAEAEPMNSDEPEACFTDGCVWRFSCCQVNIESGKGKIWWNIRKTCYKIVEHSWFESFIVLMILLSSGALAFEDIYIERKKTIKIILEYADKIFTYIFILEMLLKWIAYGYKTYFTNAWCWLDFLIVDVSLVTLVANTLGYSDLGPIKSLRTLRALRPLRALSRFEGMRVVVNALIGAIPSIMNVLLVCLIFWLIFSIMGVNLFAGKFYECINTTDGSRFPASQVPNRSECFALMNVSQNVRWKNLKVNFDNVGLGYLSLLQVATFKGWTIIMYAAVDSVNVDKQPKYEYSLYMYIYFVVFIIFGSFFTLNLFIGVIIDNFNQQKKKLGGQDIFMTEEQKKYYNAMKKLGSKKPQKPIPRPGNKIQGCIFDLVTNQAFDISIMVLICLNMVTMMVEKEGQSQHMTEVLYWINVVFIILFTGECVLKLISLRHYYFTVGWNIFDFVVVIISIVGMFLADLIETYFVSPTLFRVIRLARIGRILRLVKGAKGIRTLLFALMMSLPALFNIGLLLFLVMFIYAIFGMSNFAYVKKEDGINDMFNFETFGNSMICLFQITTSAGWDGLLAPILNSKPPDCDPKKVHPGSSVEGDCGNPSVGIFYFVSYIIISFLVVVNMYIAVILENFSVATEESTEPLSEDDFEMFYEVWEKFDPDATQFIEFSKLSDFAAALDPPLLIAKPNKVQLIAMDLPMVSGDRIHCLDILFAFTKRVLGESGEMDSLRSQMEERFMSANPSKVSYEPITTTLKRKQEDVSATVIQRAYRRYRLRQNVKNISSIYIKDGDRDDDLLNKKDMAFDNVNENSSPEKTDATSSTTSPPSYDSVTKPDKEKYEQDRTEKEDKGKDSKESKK

half-life [4]: 3.1 h
pIC50 [5]: 6.09
concentration (Plasma): 78.2 µM
half-life [9]: 12 h
Cmax [12]: 2.64 µM
pIC50 [13]: 5.70
remaining at 1 h, 10 uM [14]: > 99%
Structure (SMILES): NC(=O)c1cc(C(N)=O)n(-c2cccc(-c3cc(C(F)(F)F)ccc3C(F)(F)F)c2)n1
Activity (Canis familiaris [1]): Non-toxic
Activity (Canis familiaris [2]): Non-toxic
Activity (Mus musculus [3]): Non-toxic
Activity (Mus musculus [6]): Non-toxic
inhibition in vivo at 30 mg/kg (Rattus norvegicus [7]): 56%
Activity (Mus musculus [8]): Non-toxic
inhibition in vivo at 10 mg/kg (Rattus norvegicus [10]): 34%
inhibition in vivo at 30 mg/kg (Rattus norvegicus [11]): 46%
Activity (Mus musculus [15]): Non-toxic
Activity (Rattus norvegicus [16]): -11%
